Test results published in patent US20250361241A1, “HPK1 INHIBITOR AND MEDICAL USE THEREOF” (Betta Pharmaceuticals Co., Ltd., priority 2022, published 2025).
Several values for one entry are separate records, joined by “and”; a condition that tells them apart may be missing. Equal values may be shown once.

Legend:
[1] = target: HPK1 (Homo sapiens (Human), UniProt Q92918); test: HPK1 enzyme activity detection (1 mM ATP system), ADP-Glo with MBP substrate, Pharmacological Experiment 2; assay type: biochemical
Protocol: (§1) Pharmacological Experiment 2: […] The test compound was serially diluted using DMSO to 200 times the detection concentration. […] Centrifuge at 1000×g for 30 seconds and incubate at 25° C. for 15 minutes. • (5) Adding ATP and substrate: Add 2 μL of 2×ATP-MBP solution to the 384-well plate and centrifuge at 1000×g for 30 seconds. Seal the plate with a sealing film and incubate at 25° C. for 60 minutes. • (6) Add ADP-Glo reagent: Add 4 μL ADP-Glo reagent (Promega, V9103) to the 384-well plate, centrifuge at 1000×g for 30 seconds, and incubate at 25° C. for 60 minutes. • (7) Detection of luminescent signal; Add 8 μL of luminescent detection reagent (Promega, V9103) to a 384-well plate, centrifuge at 1000×g for 30 seconds, and incubate at 25° C. for 60 minutes. The chemiluminescent signal was read using a BMG instrument. • (8) Calculation of percentage inhibition rate: […] See Table 2 for the enzymatic IC 50 data of the example compounds on HPK1.

[2] = target: GLK (Homo sapiens (Human), UniProt Q8IVH8); test: GLK kinase assay (1 mM ATP system), ADP-Glo; assay type: biochemical
Protocol: as §1, with “Solution” for “Pharmacological Experiment 2:”, “Add” for “Adding”, “signal:” for “signal;”, “microplate reader.” for “instrument.”, “GLK kinase IC50” for “enzymatic IC 50”

Chain of HPK1 (Q92918 whole entry, species assumed): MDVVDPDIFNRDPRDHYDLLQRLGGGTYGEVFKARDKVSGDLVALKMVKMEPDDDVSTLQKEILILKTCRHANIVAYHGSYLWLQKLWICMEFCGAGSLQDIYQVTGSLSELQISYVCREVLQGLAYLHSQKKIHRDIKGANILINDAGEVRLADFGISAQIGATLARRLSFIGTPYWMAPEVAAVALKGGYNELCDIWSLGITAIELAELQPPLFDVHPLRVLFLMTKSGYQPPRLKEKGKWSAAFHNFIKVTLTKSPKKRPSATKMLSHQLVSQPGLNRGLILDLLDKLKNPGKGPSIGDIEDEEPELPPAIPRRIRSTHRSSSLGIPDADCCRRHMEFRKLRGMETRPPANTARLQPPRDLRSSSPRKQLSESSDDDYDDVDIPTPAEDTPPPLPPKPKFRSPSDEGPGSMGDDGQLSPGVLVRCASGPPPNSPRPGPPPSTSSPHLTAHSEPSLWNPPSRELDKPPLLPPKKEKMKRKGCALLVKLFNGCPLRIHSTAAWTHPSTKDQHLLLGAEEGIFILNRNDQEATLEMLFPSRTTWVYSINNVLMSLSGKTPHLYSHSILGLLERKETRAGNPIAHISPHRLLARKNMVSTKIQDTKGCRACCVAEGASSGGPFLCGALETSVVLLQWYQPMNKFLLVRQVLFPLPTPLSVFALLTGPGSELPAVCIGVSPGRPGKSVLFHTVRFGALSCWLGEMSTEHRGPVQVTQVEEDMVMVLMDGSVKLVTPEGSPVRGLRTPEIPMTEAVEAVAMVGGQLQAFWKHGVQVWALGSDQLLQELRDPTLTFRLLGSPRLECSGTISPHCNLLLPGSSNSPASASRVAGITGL
Chain of GLK (Q8IVH8 whole entry, species assumed): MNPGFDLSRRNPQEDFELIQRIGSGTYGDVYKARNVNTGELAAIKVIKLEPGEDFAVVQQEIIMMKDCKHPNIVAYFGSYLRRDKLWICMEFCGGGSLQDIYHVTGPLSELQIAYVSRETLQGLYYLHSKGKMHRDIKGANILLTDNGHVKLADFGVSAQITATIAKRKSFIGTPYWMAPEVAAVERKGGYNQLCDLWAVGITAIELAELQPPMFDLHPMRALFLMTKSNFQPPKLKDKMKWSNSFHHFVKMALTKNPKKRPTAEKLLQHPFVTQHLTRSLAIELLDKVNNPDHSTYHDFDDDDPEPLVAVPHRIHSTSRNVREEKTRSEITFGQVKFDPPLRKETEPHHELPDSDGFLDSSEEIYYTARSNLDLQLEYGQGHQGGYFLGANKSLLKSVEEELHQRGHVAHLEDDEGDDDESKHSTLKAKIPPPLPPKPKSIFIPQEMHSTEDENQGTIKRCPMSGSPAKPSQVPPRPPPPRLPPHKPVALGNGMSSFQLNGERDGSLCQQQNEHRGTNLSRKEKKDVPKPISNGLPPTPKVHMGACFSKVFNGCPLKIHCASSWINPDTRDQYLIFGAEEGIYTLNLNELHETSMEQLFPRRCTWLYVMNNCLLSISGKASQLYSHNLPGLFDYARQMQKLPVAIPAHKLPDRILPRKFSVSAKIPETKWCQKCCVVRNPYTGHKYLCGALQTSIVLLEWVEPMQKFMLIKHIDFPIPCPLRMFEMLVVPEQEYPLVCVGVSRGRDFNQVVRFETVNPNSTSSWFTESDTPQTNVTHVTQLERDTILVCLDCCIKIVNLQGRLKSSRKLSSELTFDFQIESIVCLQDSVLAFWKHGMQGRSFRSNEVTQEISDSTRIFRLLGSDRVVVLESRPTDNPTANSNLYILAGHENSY

## CN(C)C1CC2(CCOCC2)c2ccc(Nc3ccc(-c4cnn5cccnc45)c4c3C(=O)NC4)nc21 (centres unmarked) [Compound 38]
[1]
  IC50: 2.92 nM
[2]
  IC50: 232 nM

## O=C1NCc2c(-c3cnc4cc(F)ccn34)ccc(Nc3ccc4c(n3)C(N3CCC3)CC43CCOCC3)c21 (centres unmarked) [Compound 39, 7-(7-(AZETIDIN-1-YL)-2′,3′,5′,6,6′,7-HEXAHYDROSPIRO[B]PYRIDINE-5,4′-PYRAN]-2-YL)AMINO)-4-(7-FLUOROIMIDAZO[1,2-A]PYRIDIN-3-YL)ISOINDOL-1-ONE]
[1]
  IC50: 3.7 nM and 2.78 nM
[2]
  IC50: 88.2 nM

## CN(C)C1CC2(CCOCC2)c2ccc(Nc3ccc(-c4cnc5cc(CO)ccn45)c4c3C(=O)NC4)nc21 (centres unmarked) [Compound 41, 7-((7-(DIMETHYLAMINO)-2′,3′,5′,6,6′,7-HEXAHYDROSPIRO[B]PYRIDIN-5,4′-PYRAN]-2-YL)AMINO)-4-(7-(HYDROXYMETHYL)IMIDAZO[1,2-A]PYRIDIN-3-YL)ISOINDOL-1-ONE]
[1]
  IC50: 3.76 nM
[2]
  IC50: 70.7 nM

## CN(C)C1CC2(CCOCC2)c2ccc(Nc3ccc(-c4cnc5cc(Cl)ccn45)c4c3C(=O)NC4)nc21 (centres unmarked) [Compound 42]
[1]
  IC50: 4.62 nM
[2]
  IC50: 119 nM

## CN(C)C1CC2(CCOCC2)c2ccc(Nc3ccc(-c4cnc5c(F)c(F)ccn45)c4c3C(=O)NC4)nc21 (centres unmarked) [Compound 43, 4-(7,8-DIFLUOROIMIDAZO[1,2-A]PYRIDIN-3-YL)-7-((7-(DIMETHYLAMINO)-2′,3′,5′,6,6′,7-HEXAHYDROSPIRO [B]PYRIDIN-5,4′-PYRAN]-2-YL)AMINO)ISOINDOL-1-ONE]
[1]
  IC50: 4.22 nM
[2]
  IC50: 657 nM

## CN(C)C1CC2(CCOCC2)c2ccc(Nc3ccc(-c4cnc5ncccn45)c4c3C(=O)NC4)nc21 (centres unmarked) [Compound 44]
[1]
  IC50: 3.05 nM
[2]
  IC50: 378 nM

## CN(C)C1CC2(CCOCC2)c2ccc(Nc3ccc(-c4cnc5cc(F)c(Cl)cn45)c4c3C(=O)NC4)nc21 (centres unmarked) [Compound 46, 4-(6-CHLORO-7-FLUOROIMIDAZO[1,2-A]PYRIDIN-3-YL)-7-((7-(DIMETHYLAMINO)-2′,3′,5′,6,6′,7-HEXAHYDRO SPIRO[B]PYRIDIN-5,4′-PYRAN]-2-YL)AMINO)ISOINDOLIN-1-ONE]
[1]
  IC50: 11.8 nM
[2]
  IC50: 971 nM

## Cc1cc(Nc2ccc(-c3cnc4ccccn34)c3c2C(=O)NC3)nc2c1C1(CCOCC1)C[C@H]2N(C)C [Compound 47]
[1]
  IC50: 1.51 nM
[2]
  IC50: 30.3 nM

## Cc1cc(Nc2ccc(-c3cnn4ccccc34)c3c2C(=O)NC3)nc2c1C1(CCOCC1)C[C@H]2N(C)C [Compound 48]
[1]
  IC50: 2.06 nM
[2]
  IC50: 8.81 nM

## CN(C)Cc1nc(Nc2ccc(-c3cnc4cc(F)ccn34)c3c2C(=O)NC3)cc2c1C1(CCOCC1)NC2 [Compound 55]
[1]
  IC50: 7.56 nM
[2]
  IC50: 2150 nM

## O=C1NCc2c(-c3cnc4cc(F)ccn34)ccc(Nc3ccc4c(n3)C(N3CCOCC3)CC43CCOCC3)c21 (centres unmarked) [Compound 59, 4-(7-FLUOROIMIDAZO[1,2-A]PYRIDIN-3-YL)-7-(7-MORPHOLIN-2′,3′,5′,6,6′,7-HEXAHYDROSPIRO[B]PYRIDIN-5,4′-PYRAN]-2-YL)AMINO)ISOINDOL-1-ONE]
[1]
  IC50: 6.09 nM
[2]
  IC50: > 30000 nM

## CNC1CC2(CCOCC2)c2ccc(Nc3ccc(-c4cnc5cc(F)ccn45)c4c3C(=O)NC4)nc21 (centres unmarked) [Compound 60, 4-(7-FLUOROIMIDAZO[1,2-A]PYRIDIN-3-YL)-7-((7-(METHYLAMINO)-2′,3′,5′,6,6′,7-HEXAHYDROSPIRO[B]PYRIDIN-5,4′-PYRAN]-2-YL)AMINO)ISOINDOL-1-ONE]
[1]
  IC50: 2.14 nM
[2]
  IC50: 123 nM

## CN(C1CC1)C1CC2(CCOCC2)c2ccc(Nc3ccc(-c4cnc5cc(F)ccn45)c4c3C(=O)NC4)nc21 (centres unmarked) [Compound 61, 7-((7-(CYCLOPROPYL(METHYL)AMINO)-2′,3′,5′,6,6′,7-HEXAHYDROSPIRO[CYCLOPENTYL[B]PYRIDINE-5,4′-PYRAN]-2-YL)AMINO)-4-(7-FLUOROIMIDAZOLE[1,2-A]PYRIDIN-3-YL)ISOINDOL-1-ONE]
[1]
  IC50: 7.7 nM
[2]
  IC50: > 30000 nM

## O=C1NCc2c(-c3cnc4cc(F)ccn34)ccc(Nc3ccc4c(n3)C(N3CC(F)C3)CC43CCOCC3)c21 (centres unmarked) [Compound 67, 7-(7-(3-FLUOROAZETIDINE-1-YL)-2′,3′,5′,6,6′,7-HEXAHYDROSPIRO[B]PYRIDINE-5,4′-PYRAN]-2-YL)AMINO)-4-(7-FLUOROIMIDAZO[1,2-A]PYRIDIN-3-YL)ISOINDOLIN-1-ONE]
[1]
  IC50: 2.49 nM
[2]
  IC50: 136 nM

## COC1(C)CN(C2CC3(CCOCC3)c3ccc(Nc4ccc(-c5cnc6cc(F)ccn56)c5c4C(=O)NC5)nc32)C1 (centres unmarked) [Compound 70]
[1]
  IC50: 2.99 nM
[2]
  IC50: 188 nM

## CO[C@@H]1CCN(C2CC3(CCOCC3)c3ccc(Nc4ccc(-c5cnc6cc(F)ccn56)c5c4C(=O)NC5)nc32)C1 (some centres unmarked) [Compound 73]
[1]
  IC50: 3.48 nM
[2]
  IC50: 206 nM

## O=C1NCc2c(-c3cnc4cc(F)ccn34)ccc(Nc3ccc4c(n3)C(N3CC[C@H](F)C3)CC43CCOCC3)c21 (some centres unmarked) [Compound 74]
[1]
  IC50: 3.02 nM
[2]
  IC50: 299 nM

## CO[C@H]1CCN(C2CC3(CCOCC3)c3ccc(Nc4ccc(-c5cnc6cc(F)ccn56)c5c4C(=O)NC5)nc32)C1 (some centres unmarked) [Compound 76]
[1]
  IC50: 3.55 nM
[2]
  IC50: 286 nM

## CC(C)N(C)C1CC2(CCOCC2)c2ccc(Nc3ccc(-c4cnc5cc(F)ccn45)c4c3C(=O)NC4)nc21 (centres unmarked) [Compound 85, 4-(7-FLUOROIMIDAZO[1,2-A]PYRIDIN-3-YL)-7-((7-(ISOPROPYL(METHYL)AMINO)-2′,3′,5′,6,6′,7-HEXAHYDRO SPIRO[CYCLOPENTYL[B]PYRIDIN-5,4′-PYRAN]-2-YL)AMINO)ISOINDOL-1-ONE]
[1]
  IC50: 5.19 nM
[2]
  IC50: 831 nM

## CN(C)C1COC2(CCOCC2)c2ccc(Nc3ccc(-c4cnc5cc(Cl)ccn45)c4c3C(=O)NC4)nc21 (centres unmarked) [Compound 86]
[1]
  IC50: 2.61 nM
[2]
  IC50: 158 nM

## O=C1NCc2c(-c3cnc4cc(F)ccn34)ccc(Nc3ccc4c(n3)C(N3CC5(COC5)C3)CC43CCOCC3)c21 (centres unmarked) [Compound 88]
[1]
  IC50: 5.29 nM
[2]
  IC50: 208 nM

## O=C1NCc2c(-c3cnc4cc(F)ccn34)ccc(Nc3ccc4c(n3)C(N3CCCCC3)CC43CCOCC3)c21 (centres unmarked) [Compound 90]
[1]
  IC50: 5.58 nM
[2]
  IC50: 598 nM

## CN1CCN(C2CC3(CCOCC3)c3ccc(Nc4ccc(-c5cnc6cc(F)ccn56)c5c4C(=O)NC5)nc32)CC1 (centres unmarked) [Compound 91]
[1]
  IC50: 86.2 nM
[2]
  IC50: > 30000 nM

## CN(C1CCOCC1)C1CC2(CCOCC2)c2ccc(Nc3ccc(-c4cnc5cc(F)ccn45)c4c3C(=O)NC4)nc21 (centres unmarked) [Compound 93]
[1]
  IC50: 27 nM
[2]
  IC50: > 25000 nM

## COC1(C)CCN(C2CC3(CCOCC3)c3ccc(Nc4ccc(-c5cnc6cc(F)ccn56)c5c4C(=O)NC5)nc32)CC1 (centres unmarked) [Compound 94]
[1]
  IC50: 9.27 nM
[2]
  IC50: 4530 nM

## O=C1NCc2c(-c3cnc4cc(F)ccn34)ccc(Nc3ccc4c(n3)C(N3CCC(F)(F)CC3)CC43CCOCC3)c21 (centres unmarked) [Compound 98]
[1]
  IC50: 12.4 nM
[2]
  IC50: > 30000 nM

## CC(C)(C)NC1CC2(CCOCC2)c2ccc(Nc3ccc(-c4cnc5cc(F)ccn45)c4c3C(=O)NC4)nc21 (centres unmarked) [Compound 101]
[1]
  IC50: 5.22 nM
[2]
  IC50: 858 nM

## CC(C)NC1CC2(CCOCC2)c2ccc(Nc3ccc(-c4cnc5cc(F)ccn45)c4c3C(=O)NC4)nc21 (centres unmarked) [Compound 102]
[1]
  IC50: 7.42 nM
[2]
  IC50: > 30000 nM

## COCCNC1CC2(CCOCC2)c2ccc(Nc3ccc(-c4cnc5cc(F)ccn45)c4c3C(=O)NC4)nc21 (centres unmarked) [Compound 106]
[1]
  IC50: 3.46 nM
[2]
  IC50: 697 nM

## O=C1NCc2c(-c3cnc4cc(F)ccn34)ccc(Nc3ccc4c(n3)C(NC3CCCC3)CC43CCOCC3)c21 (centres unmarked) [Compound 109]
[1]
  IC50: 5.97 nM
[2]
  IC50: 791 nM

## O=C1NCc2c(-c3cnc4cc(F)ccn34)ccc(Nc3ccc4c(n3)C(N3C[C@H]5C[C@@H]3CO5)CC43CCOCC3)c21 (some centres unmarked) [Compound 110]
[1]
  IC50: 2.67 nM
[2]
  IC50: 317 nM

## O=C1NCc2c(-c3cnc4cc(F)ccn34)ccc(Nc3ccc4c(n3)C(NCC3CC3)CC43CCOCC3)c21 (centres unmarked) [Compound 117]
[1]
  IC50: 5.04 nM
[2]
  IC50: 562 nM

## CC(C)N1Cc2nc(Nc3ccc(-c4cnc5cc(F)ccn45)c4c3C(=O)NC4)ccc2C2(CCOCC2)C1 [Compound 119]
[1]
  IC50: 29.8 nM
[2]
  IC50: > 3000 nM

## O=C1NCc2c(-c3cnc4cc(F)ccn34)ccc(Nc3ccc4c(n3)CN(CC3CC3)CC43CCOCC3)c21 [Compound 120]
[1]
  IC50: 11 nM
[2]
  IC50: > 3000 nM

## CCN1Cc2nc(Nc3ccc(-c4cnc5cc(F)ccn45)c4c3C(=O)NC4)ccc2C2(CCOCC2)C1 [Compound 124]
[1]
  IC50: 8.47 nM
[2]
  IC50: 2760 nM

## O=C1NCc2c(-c3cnc4cc(F)ccn34)ccc(Nc3ccc4c(n3)C(N3CCC(F)CC3)CC43CCOCC3)c21 (centres unmarked) [Compound 144]
[1]
  IC50: 7.42 nM
[2]
  IC50: > 3000 nM

## N#Cc1ccn2c(-c3ccc(Nc4ccc5c(n4)CCCC54CCOCC4)c4c3CNC4=O)cnc2c1 [Compound 146, 3-(7-((2,3,5,6,7′,8′-HEXAHYDRO-6′-H-SPIRO[PYRAN-4,5′-[1,7]NAPHTHYRIDINE]-2′-YL)AMINO)-1-OXOISOINDOL-4-YL)IMIDAZO[1,2-A]PYRIDINE-7-CARBONITRILE]
[1]
  IC50: 4.33 nM
[2]
  IC50: 1230 nM
